In patent US20160271248A1, “CXCR4 UP- AND DOWN-REGULATION FOR TREATMENT OF DISEASES OR DISORDERS” (priority 2013, published 2016):

Legend:
[1] = Attention set-shifting task after gp120 infusions; assay type: in vivo, rat; conditions: SD rats, vs BSA
Experimental: Rats (200-400 g, male Sprague-Dawley, Taconic Farms) were stereotaxically implanted, under isoflurane anesthesia, with stainless-steel cannulas placed 0.96 mm posterior and 3.18 mm lateral to bregma, 3.47 mm below the surface of the cranium at an angle of 22°. Four stainless-steel screws (#0-80) were placed around the cannula and acrylic dental cement was used to anchor the cannula. Animals were allowed seven days to recover before receiving a bilateral infusion of 1 μl of gp120IIIB (50 ng/μl) once daily for seven days via a 10 microliter Hamilton Syringe, needle diameter 0.48 mm; infusion rate=0.374 microliters/minute. Animals were food restricted and began behavioral testing 21 days following the final infusion.
Animals were tested in an attention set-shifting task (Birrell & Brown, 2000, J. Neurosci. 20(11); 4320-4324). On day 1 of testing, food restricted rats are habituated to the testing chamber for 20 minutes. The testing chamber (17″×22″×10″ H) is divided lengthwise by a plexiglass wall with a guillotine-style door creating a waiting area (one-third of the chamber), and a testing area (remaining two-thirds of the chamber). The far wall of the testing area (furthest from the waiting area) is bisected by a plexiglass divider that extended 9.25 inches; thus creating two distinct yet easily accessible sides of the testing area. The following day, rats are trained to dig in terra cotta pots to obtain a food reward (Frosted Cheerio). The food reward is progressively buried deeper in the pots, filled with corn cob bedding, until the rat reliably digs to retrieve the food reward. On day 3, rats undergo exemplar training, discriminating between sensory cues to determine which pot contains the food reward. […] If the rat begins digging in the incorrect pot, the pots are removed from the testing area, the rat is placed back into the waiting area, and the trial is recorded as incorrect. […]

IL-1β = assay: ELISA of secreted IL-1β in neuronal/glial co-cultures; assay type: cell-based, rat; conditions: 200 pM for 24 hours; vs controls
Experimental: (§1) TNF-α and IL-1β secreted protein levels were determined from co-culture supernatants using commercially available rat TNF-α and IL-1β kits (Quantikine, R&D Systems). The assays were performed following the manufacturer's instructions. Absorbance was read at 450 nm using Wallac Victor2 1420 Multilabel Counter (PerkinElmer). The concentration of secreted TNF-α and IL-1β are expressed as picograms per milliliter (pg/mL); values were normalized to total protein content for each well.

FHC = assay: Neuronal FHC protein levels by Western blot in cultured cortical neurons; assay type: cell-based, rat
Experimental: Rat cortical neurons were cultured in the presence of a glial feeder layer, using the bilaminar cell culture model. Due to the presence of glia this culture system largely preserves the in vivo mechanisms of neuronal growth and differentiation, but also allows for direct studies on neurons, which were separated from glia at the time of analysis. Selected experiments were performed using glia-free neuronal cultures, as noted, using previously described protocols (Sengupta et al., 2009, J. Neurosci. 29:2534-2544). Neurons were transfected at the time of plating by Nucleofection (Amaxa), or after 8 days in culture by lipofectamine (Invitrogen). All experiments were conducted at 21 DIV, unless otherwise noted. HDAC4 and control (scrambled) siRNA were obtained from Ambion (s170677 and 4390843), and FHC/scrambled shRNA from GenScript (custom order; shRNA vector also expressed GFP).
Protease and phosphatases inhibitors were added to both buffers.
Rat cortical neurons were cultured in serum-free media in the presence of a glial feeder layer (Shimizu, et al., 2011, J. Vis. Exp. 57). This culture system largely preserves the in vivo environment, due to the presence of glia; however, it still enables direct investigation of neurons that can be separated by the glia before experiments. Selected studies were also performed in neurons grown in the absence of glia for the entire culture period, as indicated (Sengupta, et al., 2009, J. Neurosci. 29(8):2534-44). All experiments were conducted between 8-13 days in vitro (DIV).
Total protein extracts were obtained using standard protocols. […] The following antibodies were used: anti-FHC (3998, Cell Signaling Technology, 1:1,000) and anti-β-actin (A2066, Sigma-Aldrich, 1:5,000).

[2] = test system: layer II/III pyramidal neurons of the prefrontal cortex; assay: In vivo dendritic spine analysis (Golgi stain, Neurolucida); set-up: species or system rat
TNF-α = assay: ELISA of secreted TNF-α in neuronal/glial co-cultures; assay type: cell-based, rat; conditions: 200 pM for 24 hours; vs controls
Experimental: as §1

## gp120IIIB: X4-using HIV-1 envelope protein gp120, from Immunodiagnostics
[1]; testing 21 days after final infusion
  attention set-shifting performance: impaired attention set-shifting performance
[1]
  extra-dimensional shifts: impaired in extra-dimensional shifts
  reversal learning (Reversal 2, Reversal 3): impaired in the reversal learning component of the task
IL-1β
  secreted IL-1β levels in culture media: significantly higher
FHC; in the presence of glial feeder layer, 200 pM, up to 24 hr
  neuronal expression of FHC: able to increase neuronal expression of FHC
FHC; pure neuronal cultures, 200 pM for 3, 6, or 24 hours
  neuronal FHC protein levels: only transiently increased FHC
[2]; gp120-treated rats vs BSA
  average dendrite length: no changes in the average dendrite length
  number of branching points: reduced number of branching points
[2]; gp120IIIB 50 ng/μl, 1 μl bilateral infusion once daily for seven days, vs BSA
  spine density: reduction of spine density in layer II/III PFC neurons
TNF-α
  secreted TNF-α levels in culture media: significantly higher
